Data on 24 compounds can be found in patent US8349883B2, “Hydroxamate-based inhibitors of deacetylases B” (Novartis AG, priority 2008, dated 2013).

One assay concerns the target T1, HDAC-1 (Homo sapiens, UniProt Q13547).
T1 construct: made in house; host or cells: Sf9 or Sf21 insect cells (baculovirus, donor vector pFB-GSTX3)
Briefly: HDAC inhibition assay (purified GST-HDAC protein). The class given is biochemical. The text has this:
The baculovirus donor vector pFB-GSTX3 was used to generate a recombinant baculovirus that can express the HDAC polypeptide. Transfer vectors containing the HDAC coding region were transfected into the DH10Bac cell line (GIBCO) and plated on selective agar plates. Colonies without insertion of the fusion sequence into the viral genome (carried by the bacteria) were blue. Single, white colonies were picked and viral DNAs (bacmid) were isolated from the bacteria by standard plasmid purification procedures. Sf9 cells or Sf21 (American Type Culture Collection) cells were then transfected in […] flasks with the viral DNA using Cellfectin reagent.
Virus-containing media was collected from the transfected cell culture and used for infection to increase its titer. Virus-containing media obtained after two rounds of infection was used for large-scale protein expression. For large-scale protein expression 100 cm^2 round tissue culture plates were seeded with 5×10^7 cells/plate and infected with 1 mL of virus-containing media (at an approximately MOI of 5). After 3 days, the cells were scraped off the plate and centrifuged at 500 rpm for 5 minutes. Cell pellets from 10-20, 100 cm^2 plates, were re-suspended in 50 mL of ice-cold lysis buffer (25 mM tris-HCl, pH 7.5, 2 mM EDTA, 1% NP-40, 1 mM DTT, 1 mM P MSF). The cells were stirred on ice for 15 minutes and then centrifuged at 5,000 rpms for 20 minutes.
The centrifuged cell lysate was loaded onto a 2 mL glutathione-sepharose column (Pharmacia) and was washed thrice with 10 mL of 25 mM tris-HCl, pH 7.5, 2 mM EDTA, 1 mM DTT, 200 mM NaCl. The GST-tagged proteins were then eluted by 10 applications (1 mL each) of 25 mM tris-HCl, pH 7.5, 10 mM reduced-glutathione, 100 mM NaCl, 1 mM DTT, 10% glycerol and stored at −70° C.
HDAC assays with purified GST-HDAC protein were carried out in a final volume of 30 μL containing 15 ng of GST-HDAC protein, 20 mM tris-HCl, pH 7.5, 1 mM MnCl2, 10 mM MgCl2, 1 mM DTT, 3 μg/mL poly(Glu,Tyr) 4:1, 1% DMSO, 2.0 μM ATP (γ-[^33P]-ATP 0.1 μCi). The activity was assayed in the presence or absence of inhibitors. The assay was carried out in 96-well plates at ambient temperature for 15 minutes under conditions described below and terminated by the addition of 20 μL of 125 mM EDTA. Subsequently, 40 μL of the reaction mixture were transferred onto EMMOBILON-PVDF membrane (Millipore) previously soaked for 5 minutes with methanol, rinsed with water, then soaked for 5 minutes with 0.5% H3PO4 and mounted on vacuum manifold with disconnected vacuum source. After spotting all samples, a vacuum was connected and each well rinsed with 200 μL 0.5% H3PO4. Membranes were removed and washed four times on a shaker with 1.0% H3PO4, once with ethanol. Membranes were counted after drying at ambient temperature, mounting in Packard TopCount 96-well frame, and addition of 10 μL/well of MICROSCINT™ (Packard). IC50 values were calculated by linear regression analysis of the percentage inhibition of each compound in duplicate, at 4 concentrations (usually 0.01, 0.1, 1 and 10 μM).
• Input: 3×4 μL stopped assay on IMMOBILON membrane, not washed • Background (3 wells): assay with H2O instead of enzyme • Positive control (4 wells): 3% DMSO instead of compound • Bath control (1 well): no reaction mix
IC50 values were calculated by logarithmic regression analysis of the percentage inhibition of each compound at 4 concentrations (usually 3- or 10-fold dilution series starting at 10 μM). In each experiment, the actual inhibition by reference compound was used for normalization of IC50 values to the basis of an average value of the reference inhibitor: Normalized IC50=measured IC50 average ref IC50/measured ref IC50
Example: Reference inhibitor in experiment 0.4 μM, average 0.3 μM, Test compound in experiment 1.0 μM, normalization: 0.3/0.4=0.75 μM
For example, known HDAC inhibitors or a synthetic derivative thereof may be used as reference compounds.

Another assay deals with HCT116. Briefly: HCT116 IC50. The class given is cell-based. Particulars: Homo sapiens, HCT-116.

T1 sequence (Q13547 whole entry, species assumed): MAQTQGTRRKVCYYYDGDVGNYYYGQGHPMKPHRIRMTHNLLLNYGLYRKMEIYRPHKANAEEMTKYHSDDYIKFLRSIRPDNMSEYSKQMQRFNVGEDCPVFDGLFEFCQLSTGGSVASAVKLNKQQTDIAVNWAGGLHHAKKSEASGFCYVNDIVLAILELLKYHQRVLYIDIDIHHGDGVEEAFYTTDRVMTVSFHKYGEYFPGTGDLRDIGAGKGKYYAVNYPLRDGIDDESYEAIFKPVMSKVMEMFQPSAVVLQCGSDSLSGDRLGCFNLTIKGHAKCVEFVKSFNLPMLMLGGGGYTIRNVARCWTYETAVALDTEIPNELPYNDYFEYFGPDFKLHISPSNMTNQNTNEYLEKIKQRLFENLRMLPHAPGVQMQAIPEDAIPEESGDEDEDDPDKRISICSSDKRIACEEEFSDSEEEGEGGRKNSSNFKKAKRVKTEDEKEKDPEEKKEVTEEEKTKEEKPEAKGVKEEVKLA

For `Cc1[nH]c2ccccc2c1CCN1CCCC1c1ccc(/C=C/C(=O)NO)cc1` (centres unmarked) [Compound 1, (E)-N-Hydroxy-3-(4-{1-[2-(2-methyl-1H-indol-3-yl)-ethyl]-pyrrolidin-2-yl}-phenyl)-acrylamide], the IC50 is 3 nM against HDAC-1 and 1 nM with HCT116.

Take `O=C(/C=C/c1ccc(C2CCCN2CCCc2c[nH]c3ccccc23)cc1)NO` (centres unmarked) [Compound 2, (E)-N-Hydroxy-3-(4-{1-[3-(1H-indol-3-yl)-propyl]-pyrrolidin-2-yl}-phenyl)-acrylamide]: the half-maximal inhibitory concentration (IC50) on HDAC-1 amounted to 10 nM; with HCT116 it was 50 nM. In the same order, the values of `O=C(/C=C/c1ccc(C2CCCN2CCc2c[nH]c3ccccc23)cc1)NO` (centres unmarked) [Compound 3, (E)-N-Hydroxy-3-(4-{1-[2-(1H-indol-3-yl)-ethyl]-pyrrolidin-2-yl}-phenyl)-acrylamide] are 1 nM and 1.2 nM. For `Cc1cc2ccccc2n1CCN1CCCC1c1ccc(/C=C/C(=O)NO)cc1` (centres unmarked) [Compound 4, (E)-N-Hydroxy-3-(4-{1-[2-(2-methyl-indol-1-yl)-ethyl]-pyrrolidin-2-yl}-phenyl)-acrylamide], in that order: 10 nM and 10 nM. In the same order, the values of `O=C(/C=C/c1ccc(C2CCCN2CCn2ccc3ccccc32)cc1)NO` (centres unmarked) [Compound 5, (E)-N-Hydroxy-3-{4-[1-(2-indol-1-yl-ethyl)-pyrrolidin-2-yl]-phenyl}-acrylamide] are 6 nM and 10 nM.

As to `COc1ccc2[nH]c(C)c(CCN3CCCC3c3ccc(/C=C/C(=O)NO)cc3)c2c1` (centres unmarked) [Compound 6, (E)-N-Hydroxy-3-(4-{1-[2-(5-methoxy-2-methyl-1H-indol-3-yl)-ethyl]-pyrrolidin-2-yl}-phenyl)-acrylamide], the results for the IC50 at HDAC-1 and with HCT116 were 2 nM and 1.2 nM, respectively. In the same order, the values of `O=C(/C=C/c1ccc(C2CCCN2CCc2c(-c3ccccc3)[nH]c3ccccc23)cc1)NO` (centres unmarked) [Compound 7, (E)-N-Hydroxy-3-(4-{1-[2-(2-phenyl-1H-indol-3-yl)-ethyl]-pyrrolidin-2-yl}-phenyl)-acrylamide] are 12 nM and 3 nM. Take `CC(C)(C)c1[nH]c2cc([N+](=O)[O-])ccc2c1CCN1CCCC1c1ccc(/C=C/C(=O)NO)cc1` (centres unmarked) [Compound 9, (E)-3-(4-{1-[2-(2-tert-Butyl-6-nitro-1H-indol-3-yl)-ethyl]-pyrrolidin-2-yl}-phenyl)-N-hydroxy-acrylamide]: the 50% inhibitory concentration (IC50) on HDAC-1 was 7 nM; in the assay on HCT116, 0.5 nM. For `CC(C)(C)c1[nH]c2cc(NS(C)(=O)=O)ccc2c1CCN1CCCC1c1ccc(/C=C/C(=O)NO)cc1` (centres unmarked) [Compound 10, (E)-3-(4-{1-[2-(2-tert-Butyl-6-methanesulfonylamino-1H-indol-3-yl)-ethyl]-pyrrolidin-2-yl}-phenyl)-N-hydroxy-acrylamide], in that order: 3 nM and 2 nM. In the case of `Cc1[nH]c2ccccc2c1CC(=O)N1CCCC1c1ccc(/C=C/C(=O)NO)cc1` (centres unmarked) [Compound 12, (E)-N-Hydroxy-3-(4-{1-[2-(2-methyl-1H-indol-3-yl)-acetyl]-pyrrolidin-2-yl}-phenyl)-acrylamide], the IC50 on HDAC-1 is 4 nM; with HCT116 it was 96 nM.

As for `O=C(/C=C/c1ccc(C2CCCN2CCc2ccccc2)cc1)NO` (centres unmarked) [Compound 19, (E)-N-Hydroxy-3-[4-(1-phenethyl-pyrrolidin-2-yl)-phenyl]-acrylamide], the IC50 amounted to 3 nM on HDAC-1 and 7 nM in the assay with HCT116.

Regarding `O=C(/C=C/c1ccc(C2CCCN2CCc2ccc(O)cc2)cc1)NO` (centres unmarked) [Compound 20, (E)-N-Hydroxy-3-(4-{1-[2-(4-hydroxy-phenyl)-ethyl]-pyrrolidin-2-yl}-phenyl)-acrylamide], the IC50 at HDAC-1 turned out to be 3 nM; in the assay on HCT116 it was 11 nM. In the same order, the values of `O=C(/C=C/c1ccc([C@@H]2CCCN2CCc2ccc(F)cc2)cc1)NO` [Compound 21, (E)-3-(4-{(S)-1-[2-(4-Fluoro-phenyl)-ethyl]-pyrrolidin-2-yl}-phenyl)-N-hydroxy-acrylamide] are 8 nM and 21 nM. In the same order, the values of `O=C(/C=C/c1ccc([C@@H]2CCCN2CCc2ccc(Cl)cc2)cc1)NO` [Compound 22, (E)-3-(4-{(S)-1-[2-(4-Chloro-phenyl)-ethyl]-pyrrolidin-2-yl}-phenyl)-N-hydroxy-acrylamide] are 7 nM and 13 nM. In the same order, the values of `O=C(/C=C/c1ccc(C2CCCN2CCc2ccc(Cl)c(Cl)c2)cc1)NO` (centres unmarked) [Compound 23, (E)-3-(4-{1-[2-(3,4-Dichloro-phenyl)-ethyl]-pyrrolidin-2-yl}-phenyl)-N-hydroxy-acrylamide] are 19 nM and 97 nM. Turning to `O=C(/C=C/c1ccc(C2CCCN2CCc2ccc([N+](=O)[O-])cc2)cc1)NO` (centres unmarked) [Compound 24, (E)-N-Hydroxy-3-(4-{1-[2-(4-nitro-phenyl)-ethyl]-pyrrolidin-2-yl}-phenyl)-acrylamide], the half-inhibitory concentration (IC50) at HDAC-1 turned out to be 8 nM; in the assay with HCT116, 43 nM.

For the compound `O=C(/C=C/c1ccc(C2CCCN2CCc2ccccc2Cl)cc1)NO` (centres unmarked) [Compound 25, (E)-3-(4-{1-[2-(2-Chloro-phenyl)-ethyl]-pyrrolidin-2-yl}-phenyl)-N-hydroxy-acrylamide], the concentration for half-maximal inhibition (IC50) against HDAC-1 came to 5 nM; in the assay with HCT116, 7 nM. For `O=C(/C=C/c1ccc(C2CCCN2CCc2ccc(Cl)cc2Cl)cc1)NO` (centres unmarked) [Compound 26, (E)-3-(4-{1-[2-(2,4-Dichloro-phenyl)-ethyl]-pyrrolidin-2-yl}-phenyl)-N-hydroxy-acrylamide], the concentration for half-maximal inhibition (IC50) was determined as 7 nM at HDAC-1 and 29 nM in the assay with HCT116.

Regarding `O=C(/C=C/c1ccc(C2CCCN2CCc2ccccc2F)cc1)NO` (centres unmarked) [Compound 27, (E)-3-(4-{1-[2-(2-Fluoro-phenyl)-ethyl]-pyrrolidin-2-yl}-phenyl)-N-hydroxy-acrylamide], the IC50 against HDAC-1 stood at 6 nM; with HCT116, 11 nM. For `O=C(/C=C/c1ccc(C2CCCN2CC(O)c2ccccc2)cc1)NO` (centres unmarked) [Compound 28, (E)-N-Hydroxy-3-{4-[1-(2-hydroxy-2-phenyl-ethyl)-pyrrolidin-2-yl]-phenyl}-acrylamide], in that order: 25 nM and 85 nM.

`Cc1nn(CC2CCOCC2)c(C)c1CCN1CCC[C@H]1c1ccc(/C=C/C(=O)NO)cc1` [Compound 109, (E)-3-[4-((S)-1-{2-[3,5-Dimethyl-1-(tetrahydro-pyran-4-ylmethyl)-1H-pyrazol-4-yl]-ethyl}-pyrrolidin-2-yl)-phenyl]-N-hydroxy-acrylamide]: on HDAC-1, the IC50 worked out at 3.2 nM. Still for that read-out and setting: under `CC(C)(O)c1nn2ccccc2c1CCN1CCC[C@H]1c1ccc(CCC(=O)NO)cc1` [Compound 113, N-Hydroxy-3-[4-((S)-1-{2-[2-(1-hydroxy-1-methyl-ethyl)-pyrazolo[1,5-a]pyridin-3-yl]-ethyl}-pyrrolidin-2-yl)-phenyl]-propionamide] stands 75 nM. The same measure, in the same setting: under `Cc1n[nH]c(C)c1CCN1CCC[C@@H]1c1ccc(/C=C/C(=O)NO)cc1` [Compound 117, (E)-3-(4-{(R)-1-[2-(3,5-Dimethyl-1H-pyrazol-4-yl)-ethyl]-pyrrolidin-2-yl}-phenyl)-N-hydroxy-acrylamide] stands 12 nM; under `Cc1n[nH]c(C)c1CCN1CCC[C@H]1c1ccc(CCC(=O)NO)cc1` [Compound 119, 3-(4-{(S)-1-[2-(3,5-Dimethyl-1H-pyrazol-4-yl)-ethyl]-pyrrolidin-2-yl}-phenyl)-N-hydroxy-propionamide], 155 nM.
